Source: PubChem BioAssay (NCI)
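GI50 is the concentration that inhibits growth by half. TGI: total growth inhibition.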

Tests used:
Experiment in all cases: growth of human tumour cells (NCI), 384-well format
786-0 renal = tested on: 786-0 renal
A498 renal = tested on: A498 renal
A549 NSCLC = tested on: A549 NSCLC
ACHN renal = tested on: ACHN renal
BT-549 breast = tested on: BT-549 breast
CAKI-1 renal = tested on: CAKI-1 renal
CCRF-CEM leukemia = tested on: CCRF-CEM leukemia
COLO 205 colon = tested on: COLO 205 colon
DU-145 prostate = tested on: DU-145 prostate
EKVX NSCLC = tested on: EKVX NSCLC
HCC-2998 colon = tested on: HCC-2998 colon
HCT-116 colon = tested on: HCT-116 colon
HCT-15 colon = tested on: HCT-15 colon
HL-60(TB) leukemia = tested on: HL-60(TB) leukemia
HOP-62 NSCLC = tested on: HOP-62 NSCLC
HOP-92 NSCLC = tested on: HOP-92 NSCLC
HS 578T breast = tested on: HS 578T breast
HT29 colon = tested on: HT29 colon
IGROV1 ovarian = tested on: IGROV1 ovarian
K-562 leukemia = tested on: K-562 leukemia
KM12 colon = tested on: KM12 colon
LOX IMVI melanoma = tested on: LOX IMVI melanoma
M14 melanoma = tested on: M14 melanoma
MALME-3M melanoma = tested on: MALME-3M melanoma
MCF7 breast = tested on: MCF7 breast
MDA-MB-231 breast = tested on: MDA-MB-231 breast
MDA-MB-435 melanoma = tested on: MDA-MB-435 melanoma
MDA-MB-468 breast = tested on: MDA-MB-468 breast
MOLT-4 leukemia = tested on: MOLT-4 leukemia
NCI-H226 lung = tested on: NCI-H226 lung
NCI-H23 lung = tested on: NCI-H23 lung
NCI-H322M lung = tested on: NCI-H322M lung
NCI-H460 NSCLC = tested on: NCI-H460 NSCLC
NCI-H522 lung = tested on: NCI-H522 lung
NCI/ADR-RES ovarian = tested on: NCI/ADR-RES ovarian
OVCAR-3 ovarian = tested on: OVCAR-3 ovarian
OVCAR-4 ovarian = tested on: OVCAR-4 ovarian
OVCAR-5 ovarian = tested on: OVCAR-5 ovarian
OVCAR-8 ovarian = tested on: OVCAR-8 ovarian
PC-3 prostate = tested on: PC-3 prostate
RPMI-8226 leukemia = tested on: RPMI-8226 leukemia
RXF 393 renal = tested on: RXF 393 renal
SF-268 CNS = tested on: SF-268 CNS
SF-295 CNS = tested on: SF-295 CNS
SF-539 CNS = tested on: SF-539 CNS
SK-MEL-28 melanoma = tested on: SK-MEL-28 melanoma
SK-MEL-5 melanoma = tested on: SK-MEL-5 melanoma
SK-OV-3 ovarian = tested on: SK-OV-3 ovarian
SN12C renal = tested on: SN12C renal
SNB-19 CNS = tested on: SNB-19 CNS
SNB-75 CNS = tested on: SNB-75 CNS
SR leukemia = tested on: SR leukemia
SW-620 colon = tested on: SW-620 colon
T-47D breast = tested on: T-47D breast
TK-10 renal = tested on: TK-10 renal
U251 glioblastoma = tested on: U251 glioblastoma
UACC-257 melanoma = tested on: UACC-257 melanoma
UO-31 renal = tested on: UO-31 renal

NC(=O)c1ccc(-c2nc(-c3ccc4c(c3)OCO4)c(-c3ccccn3)[nH]2)cc1
GI50 ([…]-0 renal): 28 µM
TGI (786-0 renal): 81.6 µM
GI50 (A498 renal): 23.4 µM
TGI (A498 renal): 56.3 µM
GI50 (A549 NSCLC): 21.1 µM
TGI (A549 NSCLC): 57.1 µM
GI50 (ACHN renal): 44.7 µM
TGI (ACHN renal): > 100 µM
GI50 (BT-549 breast): 17.5 µM
TGI (BT-549 breast): 64.3 µM
GI50 (CAKI-1 renal): 28.4 µM
TGI (CAKI-1 renal): 72.9 µM
GI50 (CCRF-CEM leukemia): 18.1 µM
TGI (CCRF-CEM leukemia): 38.7 µM
GI50 (COLO 205 colon): 21.7 µM
TGI (COLO 205 colon): 39.3 µM
GI50 (DU-145 prostate): 23.7 µM
TGI (DU-145 prostate): 52.1 µM
GI50 (EKVX NSCLC): 14.3 µM
TGI (EKVX NSCLC): 59.1 µM
GI50 (HCC-2998 colon): 16.7 µM
TGI (HCC-2998 colon): 36.3 µM
GI50 (HCT-116 colon): 16.9 µM
TGI (HCT-116 colon): 32.2 µM
GI50 (HCT-15 colon): 18.9 µM
TGI (HCT-15 colon): 36 µM
GI50 (HL-60(TB) leukemia): 17.8 µM
TGI (HL-60(TB) leukemia): 31.7 µM
GI50 (HOP-62 NSCLC): 18.5 µM
TGI (HOP-62 NSCLC): 43 µM
GI50 (HOP-92 NSCLC): 30.7 µM
TGI (HOP-92 NSCLC): 95.7 µM
GI50 (HS 578T breast): 25.3 µM
TGI (HS 578T breast): 60.1 µM
GI50 (HT29 colon): 19.9 µM
TGI (HT29 colon): 44.9 µM
GI50 (IGROV1 ovarian): 19.6 µM
TGI (IGROV1 ovarian): 46.1 µM
GI50 (K-562 leukemia): 35.3 µM
TGI (K-562 leukemia): > 100 µM
GI50 (KM12 colon): 27 µM
TGI (KM12 colon): 73.2 µM
GI50 (LOX IMVI melanoma): 14.2 µM
TGI (LOX IMVI melanoma): 29.4 µM
GI50 (M14 melanoma): 24.4 µM
TGI (M14 melanoma): 83.2 µM
GI50 (MALME-3M melanoma): 29.7 µM
TGI (MALME-3M melanoma): 52.4 µM
GI50 (MCF7 breast): 20.6 µM
TGI (MCF7 breast): 49.1 µM
GI50 (MDA-MB-231 breast): 22.2 µM
TGI (MDA-MB-231 breast): 83 µM
GI50 (MDA-MB-435 melanoma): 39.6 µM
TGI (MDA-MB-435 melanoma): > 100 µM
GI50 (MDA-MB-468 breast): 17.9 µM
TGI (MDA-MB-468 breast): 36.9 µM
GI50 (MOLT-4 leukemia): 16.5 µM
TGI (MOLT-4 leukemia): 30.3 µM
GI50 (NCI-H226 lung): 17.2 µM
TGI (NCI-H226 lung): 32.7 µM
GI50 (NCI-H23 lung): 22 µM
TGI (NCI-H23 lung): 47.7 µM
GI50 (NCI-H322M lung): 27.9 µM
TGI (NCI-H322M lung): 90.6 µM
GI50 (NCI-H460 NSCLC): 14.4 µM
TGI (NCI-H460 NSCLC): 28.1 µM
GI50 (NCI-H522 lung): 24.2 µM
TGI (NCI-H522 lung): 46.1 µM
GI50 (NCI/ADR-RES ovarian): 16.4 µM
TGI (NCI/ADR-RES ovarian): 33.3 µM
GI50 (OVCAR-3 ovarian): 21.6 µM
TGI (OVCAR-3 ovarian): 47.1 µM
GI50 (OVCAR-4 ovarian): 26.7 µM
TGI (OVCAR-4 ovarian): 71.6 µM
GI50 (OVCAR-5 ovarian): 26.6 µM
TGI (OVCAR-5 ovarian): 81.9 µM
GI50 (OVCAR-8 ovarian): 22.6 µM
TGI (OVCAR-8 ovarian): 52.2 µM
GI50 (PC-3 prostate): 27.2 µM
TGI (PC-3 prostate): > 100 µM
GI50 (RPMI-8226 leukemia): 15.7 µM
TGI (RPMI-8226 leukemia): 30.4 µM
GI50 (RXF 393 renal): 11.9 µM
TGI (RXF 393 renal): 26.8 µM
GI50 (SF-268 CNS): 38 µM
TGI (SF-268 CNS): > 100 µM
GI50 (SF-295 CNS): 20.2 µM
TGI (SF-295 CNS): 43.3 µM
GI50 (SF-539 CNS): 41.8 µM
TGI (SF-539 CNS): > 100 µM
GI50 (SK-MEL-28 melanoma): 32.9 µM
TGI (SK-MEL-28 melanoma): 86.5 µM
GI50 (SK-MEL-5 melanoma): 7.13 µM
TGI (SK-MEL-5 melanoma): 19.5 µM
GI50 (SK-OV-3 ovarian): 24.3 µM
TGI (SK-OV-3 ovarian): 64.9 µM
GI50 (SN12C renal): 39.1 µM
TGI (SN12C renal): > 100 µM
GI50 (SNB-19 CNS): 40.1 µM
TGI (SNB-19 CNS): > 100 µM
GI50 (SNB-75 CNS): 42.4 µM
TGI (SNB-75 CNS): > 100 µM
GI50 (SR leukemia): 17.5 µM
TGI (SR leukemia): 32.4 µM
GI50 (SW-620 colon): 60.6 µM
TGI (SW-620 colon): > 100 µM
GI50 (T-47D breast): 20.4 µM
TGI (T-47D breast): 42.4 µM
GI50 (TK-10 renal): 24.6 µM
TGI (TK-10 renal): 60.4 µM
GI50 (U251 glioblastoma): 35.2 µM
TGI (U251 glioblastoma): > 100 µM
GI50 (UACC-257 melanoma): 22.4 µM
TGI (UACC-257 melanoma): 43 µM
GI50 (UO-31 renal): 42.6 µM
TGI (UO-31 renal): > 100 µM
